The COVID Moonshot data (paper PMC7615835)
Values joined by “and” are separate entries in the source; they are usually repeats but may differ in a detail not shown here. Identical values can stand only once.

Experiments:
[1] = molecular target: SARS-CoV-2 Main Protease (SARS-CoV-2) (UniProt P0DTD1)
[2] = mouse; plasma
[3] = in vivo, iv
[4] = not given; remark: listed apart in the source
[5] = mouse; liver_microsomes
[6] = not given; remark: listed apart in the source
[7] = dog; liver_microsomes
[8] = human; liver_microsomes
[9] = human; plasma
[10] = mouse; hepatocytes
[11] = rat; plasma
[12] = cattle; serum
[13] = rat; in vivo; po; 10.0 mg/kg
[14] = pampa
SARS-CoV-2 (SARS-CoV-2) = conditions: helaace2
[15] = helaace2

## O=C(Cc1cccc(Cl)c1)Nc1cncc2cccc(F)c12
[1]
  IC50: 1.31 µM
other
  logD: 3.1

## O=C(Nc1cncc2ccncc12)[C@H]1CCOc2ccc(Cl)cc21 (stereo in doubt)
[2]
  fraction unbound: 0.219
  recovery: 102%
[3]; mouse, 0.5 mg/kg
  AUC(0-inf): 113 ng·h/mL and 122 ng·h/mL
  AUC(0-t): 112 ng·h/mL and 118 ng·h/mL
  C0: 525 ng/mL and 604 ng/mL
  MRT inf: 13.7 min and 14.6 min
  MRT last: 13 min
  Vd: 1.01 L/kg and 1 L/kg
  clearance: 73.5 mL/min/kg and 68.7 mL/min/kg
  half-life: 9.48 min and 11.9 min
[4]
  logD: 2.59 and 2.5
other
  logD: 2.6
[5]
  half-life: 7.8 min
  microsomal CLint: 223 µL/min/mg
[6]; a549
  CC50: > 9.99 µM

## COC(=O)[C@@H]1C[C@@H](NC(=O)C(c2cccnc2)N(C(=O)c2cocn2)c2ccc(C(C)(C)C)cc2)CN1C(=O)OC(C)(C)C (stereo in doubt)
[1]
  IC50: 6.82 µM
[6]; vero
  CC50: > 10 µM

## O=C(Nc1cncc2ccccc12)C(NC(=O)[C@@H]1CCCO1)c1cccc(Cl)c1 (stereo in doubt)
[1]
  IC50: 2.29 µM
[6]; a549
  CC50: > 9.99 µM

## CN(C)C(=O)CC1(C(=O)Nc2cncc3ccccc23)CCOc2ccc(Cl)cc21 (stereo unspecified)
[1]
  IC50: 2.92 µM
[6]; a549
  CC50: > 9.99 µM

## O=C(Nc1cnccc1C1CC1)C1CCNc2cc(Cl)c(Cl)cc21 (stereo unspecified)
[3]; rat, 0.5 mg/kg
  AUC(0-inf): 144 ng·h/mL and 96.1 ng·h/mL
  AUC(0-t): 142 ng·h/mL and 94.2 ng·h/mL
  C0: 341 ng/mL and 180 ng/mL
  MRT inf: 46.2 min and 45.9 min
  MRT last: 40.6 min and 41 min
  Vd: 2.65 L/kg and 4.01 L/kg
  clearance: 57.7 mL/min/kg and 86.8 mL/min/kg
  half-life: 49.4 min and 48.2 min
[6]; a549
  CC50: > 9.99 µM
[6]; mda-md-435
  CC50: > 9.99 µM

## O=C(Nc1cncc2ccccc12)[C@@H]1CCNc2cc(Cl)c(Cl)cc21 (stereo in doubt)
[7]
  half-life: 27.9 min
  microsomal CLint: 62.2 µL/min/mg
[2]
  fraction unbound: 0.039
  recovery: 98.1%
[8]
  microsomal CLint: 40 µL/min/mg
[1]
  IC50: < 0.05 µM and 0.0474 µM
[9]
  fraction unbound: 0.049 (2×) and 0.023
  recovery: 105%
[3]; rat, 0.5 mg/kg
  AUC(0-inf): 198 ng·h/mL and 170 ng·h/mL
  C0: 559 ng/mL and 452 ng/mL
  MRT inf: 33.1 min and 29.5 min
  MRT last: 26.2 min and 27.9 min
  Vd: 1.46 L/kg and 1.94 L/kg
  clearance: 49.6 mL/min/kg and 60.7 mL/min/kg
[3]; rat, 1.0 mg/kg
  AUC(0-inf): 220 ng·h/mL and 249 ng·h/mL
  C0: 324 ng/mL and 410 ng/mL
  MRT inf: 44.1 min and 46 min
  MRT last: 44.8 min and 42.7 min
  Vd: 3.49 L/kg and 2.99 L/kg
  clearance: 75.9 mL/min/kg and 68 mL/min/kg
  half-life: 38.2 min and 32.5 min
[10]
  half-life: 83 min
[4]
  logD: 3.4 and 3.54
other
  logD: 3.8
[5]
  half-life: 9.3 min
  microsomal CLint: 290 µL/min/mg and 186 µL/min/mg
[11]
  fraction unbound: 0.033 (2×) and 0.029
  recovery: 98.4%
[12]
  fraction unbound: 0.584
  recovery: 70.6%
[13]
  AUC(0-inf): 257 ng·h/mL
  AUC(0-t): 247 ng·h/mL
  CL/F: 653 mL/min/kg
  Cmax: 40.4 ng/mL
  MRT last: 397 min
  Tmax: 120 min
  bioavailability: 10.2% (2×) and 11.9%
  half-life: 255 min

## C=CC(=O)N(C(=O)C1COc2ccc(Cl)cc21)c1cncc2ccccc12 (stereo unspecified)
[14]
  Papp: 435 ×10⁻⁶ cm/s

## C=CC(=O)N(C(=O)[C@H]1CCOc2ccc(Cl)cc21)c1cncc2ccccc12 (stereo in doubt)
[6]; a549
  CC50: > 9.99 µM
[6]; vero
  CC50: > 9.99 µM

## CC1CN(S(C)(=O)=O)CCC1NC(=O)CC1(C(=O)Nc2cncc3ccccc23)CCOc2ccc(Cl)cc21 (stereo unspecified)
[1]
  IC50: 2.79 µM
[6]; a549
  CC50: > 9.99 µM

## O=C(Cc1ccc(Cl)c(Cl)c1)Nc1cncc2cnccc12
[1]
  IC50: 1.85 µM
[6]; a549
  CC50: > 9.99 µM

## O=C(Nc1cncc2ccccc12)C1CCOc2c(OCc3ccncc3)cc(Cl)cc21 (stereo unspecified)
[1]
  IC50: 3.45 µM
[6]; a549
  CC50: > 9.99 µM

## CN(C)C(=O)CNCC1(C(=O)Nc2cncc3ccccc23)CCOc2ccc(Cl)cc21 (stereo unspecified)
[1]
  IC50: 0.603 µM
other
  logD: 2.7

## C=CC(=O)N(C(=O)C1CCOc2ccc(Cl)cc21)c1cncc2ccccc12 (stereo unspecified)
[6]; a549
  CC50: > 10 µM

## O=C(Nc1cncc2ccccc12)C(O)c1ccc(Cl)c(Cl)c1 (stereo unspecified)
[1]
  IC50: 2.01 µM
[6]; a549
  CC50: > 9.99 µM

## O=C(Cn1nc2n(c(=O)c1=O)CCC2)NC(C(=O)Nc1cncc2ccccc12)c1cccc(Cl)c1 (stereo unspecified)
[6]; vero
  CC50: > 9.99 µM

## N#Cc1ccc2cncc(NC(=O)C3CCOc4ccc(Cl)cc43)c2c1 (stereo unspecified)
[6]; a549
  CC50: > 10 µM

## O=C(Nc1cncc2c1CCCC2)C1CCNc2cc(Cl)c(Cl)cc21 (stereo unspecified)
other
  logD: 3.9

## N#CCC(=O)N1Cc2ccc(Cl)cc2C(C(=O)Nc2cncc3ccccc23)C1 (stereo unspecified)
[1]
  IC50: 0.204 µM
[3]; rat, 0.5 mg/kg
  AUC(0-inf): 128 ng·h/mL and 148 ng·h/mL
  AUC(0-t): 124 ng·h/mL and 144 ng·h/mL
  C0: 404 ng/mL and 370 ng/mL
  MRT inf: 28.7 min and 29.3 min
  MRT last: 24.5 min and 25.6 min
  Vd: 1.61 L/kg and 1.36 L/kg
  clearance: 54.8 mL/min/kg and 47.4 mL/min/kg
  half-life: 25.4 min and 22 min

## COC(=O)C1(NC(=O)C(c2cccnc2)N(C(=O)c2cocn2)c2ccc(C(C)(C)C)cc2)CCCC1 (stereo unspecified)
[1]
  IC50: 5.26 µM
[6]; vero
  CC50: > 10 µM

## CS(=O)(=O)N1Cc2ccc(Cl)cc2[C@H](C(=O)Nc2cncc3ccccc23)C1 (stereo in doubt)
other
  logD: 2.2

## COCCS(=O)(=O)N1Cc2ccc(Cl)cc2C(C(=O)Nc2cncc3ccccc23)C1 (stereo unspecified)
[1]
  IC50: 0.211 µM and 0.214 µM
other
  logD: 2.3

## N#CC1(CS(=O)(=O)N2Cc3ccc(Cl)cc3C(C(=O)Nc3cncc4ccccc34)C2)CNC1 (stereo unspecified)
[1]
  IC50: 0.169 µM
[3]; rat, 0.5 mg/kg
  AUC(0-inf): 101 ng·h/mL and 104 ng·h/mL
  AUC(0-t): 99.7 ng·h/mL and 102 ng·h/mL
  C0: 417 ng/mL and 369 ng/mL
  MRT inf: 24.5 min and 22.7 min
  MRT last: 20.7 min and 22.2 min
  Vd: 1.55 L/kg and 1.68 L/kg
  clearance: 68.6 mL/min/kg and 67.4 mL/min/kg
  half-life: 20.8 min and 21.5 min
other
  logD: 1.8

## Cc1cccc(/C=N/Nc2cc(N3CCOCC3)nc(OCCc3ccccn3)n2)c1
SARS-CoV-2 (SARS-CoV-2)
  EC50: < 0.01 µM and 0.0147 µM and 0.0229 µM
  EC90: 0.158 µM and 0.0708 µM and 0.0829 µM

## COc1ccc2cncc(NC(=O)C3(OC)CCOc4ccc(Cl)cc43)c2c1 (stereo unspecified)
[1]
  IC50: 0.116 µM and 0.12 µM
[3]; mouse, 0.5 mg/kg
  AUC(0-inf): 98.2 ng·h/mL and 108 ng·h/mL
  C0: 246 ng/mL and 252 ng/mL
  MRT inf: 41.5 min and 34.1 min
  MRT last: 30.8 min and 28.1 min
  Vd: 3.52 L/kg and 2.67 L/kg
  clearance: 84.9 mL/min/kg and 77.9 mL/min/kg
  half-life: 35.6 min and 29 min
other
  logD: 3.4

## CCC(CC)COC(=O)[C@H](C)NP(=O)(OC[C@H]1O[C@@](C#N)(c2ccc3c(N)ncnn23)[C@H](O)[C@@H]1O)Oc1ccccc1 (stereo in doubt)
[15]
  CC50: 10.8 µM and 27 µM and 16.4 µM

## O=C(Cc1cccc(Cl)c1)Nc1cncc2cc(F)ccc12
[1]
  IC50: 1.47 µM
[6]; a549
  CC50: > 9.99 µM
